Laboratory results published in patent EP0269230A1, “Heterocyclic compounds” (priority 1986, dated 1988).
Values after ≈ are worked out from the molar mass of the structure shown.

Key:
[1] = test system: Coriolusversicolor, Coniophora putena, Aureobasidium pullulans and Chaetomium globosum; assay: Antifungal testing, primary soft agar screen, inhibition of hyphae growth; format: cell-based; conditions: fungus not specified per compound; for IC50: read-out: IC₅₀
Experimental: The antifungal activity of compounds of the invention was determined using a primary soft agar screen. The concentration dependent inhibition of hyphae growth was determined for Coriolusversicolor, Coniophora putena, Aureobasidium pullulans and Chaetomium globosum.

[2] = test system: Musca domestica (WRL strain); assay: Topical application to unanaesthetised female Musca domestica; format: in vivo; conditions: topical application in cellosolve; mortality assessed after 10 mins, 1 hr, 24 hrs and 48 hrs
Experimental: Mortality was assessed after 10 mins, 1 hr, 24 hrs and 48 hrs.

Musca domestica = assay: Lethal activity against insects, spray test on female Musca domestica; format: in vivo; conditions: sprayed onto 20 female Musca domestica, mortality after 48 hrs at 25°C
Experimental: (§1) The activity of the compounds of the invention was tested by dissolving the compounds in acetone (5%) and then diluting in water: "Symperonic" (94.5%:0.5%) to give a water emulsion. The solution was then used to treat the following insects: Musca domestica, Plutella xylostella, Myzus persicae and Tetranychus urticae.
20 Female Musca domestica were contained in a cardboard cyclinder with gauze over either end. A solution containing the compounds was sprayed onto the insects so enclosed and mortality assessed after 48 hrs at 25°C.

[3] = Mammalian toxicity, oral, mice; format: in vivo; conditions: given orally to mice (Charles River CD1)
Experimental: 1-(2E)-6-Methoxyimino-3-methylhex-2-enyl-2-methylbenzimidazole and 1-geranyl-2,6,7-trimethylbenzimidazole have an LD₅₀ value of approximately 200 mg when given orally to mice (Charles River CD1).

Myzus persicae = assay: Lethal activity against insects, spray test on adult Myzus on chinese cabbage leaf disc; format: in vivo; conditions: 10 adult Myzus on leaf disc sprayed, mortality after 2 days at 25°C
Experimental: as §1
10 adult Myzus were placed on a leaf disc of chinese cabbage. 24 hours later the disc was sprayed with the solution containing the compound. Mortality was assessed after 2 days at 25°C.

Plutella xylostella = assay: Lethal activity against insects, spray test on Plutella larvae on chinese cabbage leaf; format: in vivo; conditions: 7 Plutella larvae and leaf sprayed, mortality after 2 days at 25°C
Experimental: as §1
7 Plutella larvae were sprayed with the solution containing the compound and added to a chinese cabbage leaf which had been similarly sprayed and left to dry. Mortality was assessed after 2-days at 25°C.

Tetranychus urticae = assay: Lethal activity, spray test on infested french bean leaf discs; format: in vivo; conditions: infested leaf discs sprayed, mortality after 2 days at 25°C
Experimental: as §1
Leaf discs of infested french bean were sprayed with the solution containing the compound. Mortality was assessed after 2 days at 25°C.

Row | Compound | LD₅₀ [2] [µg/fly] | IC50 [1] [µg/mL] | further results
1 | 5(6)-Ethoxy-1-geranyl-2-methyl-benzimidazole |  |  | IC₅₀ [1]: 30 ppm
2 | CC=CCC/C(C)=C/Cn1c(C)nc2ccccc21 [(2E)-2-Methyl-1-(3-methlocta-2,6-dienyl)benzimidazole] | < 10 | 30 (≈ 118 µM) | 
3 | CC(C)=CCC/C(C)=C/Cn1c(C)nc2c(N)cccc21 [4-Amino-1-geranyl-2-methylbenzimidazole] | < 10 | 30 (≈ 106 µM) | active at 1000 ppm (Musca domestica): active
4 | CON=CCC/C(C)=C/Cn1c(C)nc2ccccc21 [1-[(2E)-6-Methoxyimino-3-methylhex-2-enyl]-2-methybenzimidazole] | < 10 |  | LD₅₀ [3]: approximately 200 mg
5 | C/C(=C\Cn1c(C)nc2ccccc21)CCC=C(Cl)Cl [1-, (2E)-7,7-Dichloro-3-methylhepta-2,6-dienyl,-2-methylbenzimidazole] |  | 30 (≈ 97 µM) | 
6 | CC(C)=CCC/C(C)=C/Cn1c(C)nc2c([N+](=O)[O-])cccc21 [1-Geranyl-2-methyl-4-nitrobenzimidazole] | < 10 | 30 (≈ 95.7 µM) | active at 1000 ppm (Musca domestica): active; active at 200 ppm (Myzus persicae): active
7 | CC(C)=CCC/C(C)=C/Cn1c(C)nc2ccc(C)c(C)c21 [1-Geranyl-2,6,7-trimethylbenzimidazole] | < 10 | 30 (≈ 101 µM) | active at 1000 ppm (Musca domestica): active; active on Myzus persicae at 1000 ppm (Myzus persicae): active; LD₅₀ [3]: approximately 200 mg
8 | 5(6)-Chloro-geranyl-2-methylbenzimidazole |  |  | IC₅₀ [1]: 30 ppm
9 | CC(C)=CCC/C(C)=C/Cn1c(C)nc2c(Cl)cc(Cl)cc21 [4(7),6(5)-Dichloro-1-geranyl-2-methylbenzimidazole] |  |  | IC₅₀ [1]: 30 ppm
10 | C/C(=C\Cn1c(C)nc2ccccc21)CCC=NOCc1ccccc1 [2-Methyl-1-[(2E)-3-methyl-6-benzyloxyiminohex-2-enyl]benzimidazole] |  | 30 (≈ 86.3 µM) | 
11 | COC(=O)c1cccc2nc(C)n(C/C=C(\C)CCC=C(C)C)c12 [Methyl 1-geranyl-2-methyl-benzimidazole-7-carboxylate] |  | 30 (≈ 91.9 µM) | 
12 | C/C(=C\Cn1c(C)nc2ccccc21)CCCC(C)(C)OC(=O)Nc1ccccc1 [(5E)-7-(2-Methylbenzimidazole-1-yl)-1,1,5-trimethylhept-5-enyl-N-phenyl-carbamate] | < 10 | 30 (≈ 74 µM) | 
13 | CC(=CCn1c(C)nc2ccccc21)CCOC(C)C (mixture of isomers) [(E/Z)-1-(5-isopropoxy-3-methylpent-2-enyl)-2-methylbenzimidazole] | < 10 |  | 
14 | COC(C)(C)CCC/C(C)=C/Cn1c(C)nc2ccc(C)c(C)c21 [(2E)-1-(7-Methoxy-3,7-dimethyloct-2-enyl)-2,6,7-trimethylbenzimidazole] |  | 30 (≈ 91.3 µM) | 
15 | CC(C)=CCC/C(C)=C/CC/C(C)=C/Cn1c(C)nc2c(C)cccc21 [(2E,6E)-2,4-dimethyl-1-(3,7,11)-(trimethyldodeca-2,6,10-trienyl)benzimidazole] |  | 30 (≈ 85.6 µM) | 
16 | COC(C)(C)CCC/C(C)=C/Cn1c(C)nc2c(C)c(C)ccc21 [(2E)-1-(7-Methoxy-3,7-dimethyloct-2-enyl)-2,4,5-trimethylbenzimidazole] | < 10 |  | active at 200 ppm (Musca domestica): active; active at 1000 ppm (Plutella xylostella): active; active at 200 ppm (Myzus persicae): active
17 | CC(C)=CCC/C(C)=C/Cn1c(C)nc2cc(C)c(C)cc21 [1-Geranyl-2,5,6-trimethylbenzimidazole] |  | 30 (≈ 101 µM) | 
18 | COC(C)(C)CCC/C(C)=C/Cn1c(C)nc2c(C)cccc21 [(2E)-1-(7-Methoxy-3,7-dimethyloct-2-enyl)-2,4-dimethylbenzimidazole] | < 10 | 30 (≈ 95.4 µM) | active at 200 ppm (Musca domestica): active; active at 200 ppm (Myzus persicae): active; active against Tetranychus urticae at 200 ppm (Tetranychus urticae): active
19 | 1-Geranyl-2-methyl-5(6)-nitrobenzimidazole | < 10 |  | active on Myzus persicae at 1000 ppm (Myzus persicae): active
20 | C=CCCC=CCn1c(C)nc2ccccc21 [1-[Hepta-2,6-dienyl]-2-methylbenzimidazole] |  | 30 (≈ 133 µM) | 
21 | CC(C)=CCC/C(C)=C/Cn1c(C)nc2c(C)cccc21 [1-Geranyl-2,4-dimethylbenzimidazole, 2,4-Dimethyl-1-geranylbenzimidazole] | < 10 | 30 (≈ 106 µM) | active at 200 ppm (Musca domestica): active; active at 200 ppm (Myzus persicae): active
22 | C=CCCC(C)=CCn1c(C)nc2ccccc21 [1-[3-Methylhepta-2,6-dienyl]-2-methylbenzimidazole] |  | 30 (≈ 125 µM) | 
23 | COc1ccc2c(c1)nc(C)n2C/C=C(\C)CC/C=C(\C)CCC=C(C)C [(2E,6E)-5-Methoxy-2-methyl-1-(3,7,11-trimethyldodeca-2,6,10-trienyl)benzimidazole] |  | 30 (≈ 81.8 µM) | 
24 | CC(C)=CCC/C(C)=C/Cn1c(Cl)nc2ccccc21 [2-Chloro-1-geranylbenzimidazole] | < 10 |  | active at 1000 ppm (Musca domestica): active; active on Myzus persicae at 1000 ppm (Myzus persicae): active
25 | 1-Geranyl-5(6)-methoxy-2-methylbenzimidazole | < 10 |  | active at 1000 ppm (Musca domestica): active; active on Myzus persicae at 1000 ppm (Myzus persicae): active; IC₅₀ [1]: 30 ppm
